# In patent US20100261708A1 (BOEHRINGER INGELHEIM INTERNATIONAL GMBH, priority 2007, published 2010):
# Where two headings read alike, the source gives them in different places.
# Biological target: T1, human CB2R (Homo sapiens, UniProt P34972)
# T1 construct: host or cells: CHO cells
# Assay: CB2R mediated modulation of cAMP synthesis
# Format: cell-based
# Protocol: B. CB2R Mediated Modulation of cAMP Synthesis:
# Compounds of the invention were evaluated for their CB2 agonist or inverse agonistic activity in accordance with the following experimental method.
# CHO cells expressing human CB2R (Euroscreen) were plated at a density of 5000 cells per well in 384 well plates and incubated overnight at 37° C. After removing the media, the cells were treated with test compounds diluted in stimulation buffer containing 1 mM IBMX, 0.25% BSA and 10 uM Forskolin. The assay was incubated for 30 minutes at 37° C. Cells were lysed and the cAMP concentration was measured using DiscoverX-XS cAMP kit, following the manufacturer's protocol. In this setting, agonists will decrease forskolin induced production of cAMP while inverse agonists will further increase forskolin induced production of cAMP. EC50 of agonists were calculated as follows. The maximal amount of cAMP produced by forskolin compared to the level of cAMP inhibited by 1 uM CP55940 is defined as 100%. […] Data was analyzed using a four-parameter logistic model. (Model 205 of XLfit 4.0).
# T1 sequence (P34972 whole entry): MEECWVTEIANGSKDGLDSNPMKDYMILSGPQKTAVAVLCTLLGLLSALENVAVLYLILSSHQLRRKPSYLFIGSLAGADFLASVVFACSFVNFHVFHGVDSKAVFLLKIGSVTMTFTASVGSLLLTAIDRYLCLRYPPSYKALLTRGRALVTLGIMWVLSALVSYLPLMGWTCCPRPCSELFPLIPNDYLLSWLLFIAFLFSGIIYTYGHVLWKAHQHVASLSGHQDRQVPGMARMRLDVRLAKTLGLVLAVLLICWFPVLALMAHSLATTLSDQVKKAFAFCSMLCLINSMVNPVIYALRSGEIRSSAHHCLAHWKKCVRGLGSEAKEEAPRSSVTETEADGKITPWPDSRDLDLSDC
EC50 (read-out: CB2 CAMP @EC50) [nM],SMILES,EC50 [nM]
21,"CC(C)(C)SCCNC(=O)N1CCCN(c2ncc(C(F)(F)F)cc2Cl)CC1 [Example 15, 4-(3-Chloro-5-trifluoromethyl-pyridin-2-yl)-[1,4]diazepane-1-carboxylic acid (2-tert-butylsulfanyl-ethyl)-amide]",
500,"Cn1nc(C(C)(C)C)cc1NC(=O)N1CCCN(c2ncc(Cl)cc2Cl)CC1 [Example 28, 4-(3,5-Dichloro-pyridin-2-yl)-[1,4]diazepane-1-carboxylic acid (5-tert-butyl-2-methyl-2H-pyrazol-3-yl)-amide]",
19,"O=C(C1CCC(O)CC1)N1CCCN(c2nc3cc(C(F)(F)F)ccc3o2)CC1 (stereo not shown) [Example 32, (4-Hydroxy-cyclohexyl)-[4-(5-trifluoromethyl-benzooxazol-2-yl)-[1,4]diazepan-1-yl]-methanone]",
40,"N#Cc1cnc(N2CCCN(C(=O)C3CCOCC3)CC2)s1 [Example 34, 2-[4-(Tetrahydro-pyran-4-carbonyl)-[1,4]diazepan-1-yl]-thiazole-5-carbonitrile]",
204,"Cc1c(Cl)ccc2sc(N3CCCN(C(=O)N4CCOCC4)CC3)nc12 [Example 38, [4-(5-Chloro-4-methyl-benzothiazol-2-yl)-[1,4]diazepan-1-yl]-morpholin-4-yl-methanone]",
2,"Cc1ccc(Cl)c2sc(N3CCCN(C(=O)N4CCOCC4)CC3)nc12 [Example 39, [4-(7-Chloro-4-methyl-benzothiazol-2-yl)-[1,4]diazepan-1-yl]-morpholin-4-yl-methanone]",
221,"Cc1cc(Cl)cc2sc(N3CCCN(C(=O)C4CCOCC4)CC3)nc12 [Example 42, [4-(6-Chloro-4-methyl-benzothiazol-2-yl)-[1,4]diazepan-1-yl]-(tetrahydro-pyran-4-yl)-methanone]",
114,"Cc1ccc(Cl)c2sc(N3CCCN(C(=O)C4CCOCC4)CC3)nc12 [Example 43, [4-(7-Chloro-4-methyl-benzothiazol-2-yl)-[1,4]diazepan-1-yl]-(tetrahydro-pyran-4-yl)-methanone]",
445,"Cc1ccc(C)c2sc(N3CCCN(C(=O)C4CCOCC4)CC3)nc12 [Example 46, [4-(4,7-Dimethyl-benzothiazol-2-yl)-[1,4]diazepan-1-yl]-(tetrahydro-pyran-4-yl)-methanone]",
53,"Cc1cc(C)c2sc(N3CCCN(C(=O)C4CCOCC4)CC3)nc2c1 [Example 47, [4-(5,7-Dimethyl-benzothiazol-2-yl)-[1,4]diazepan-1-yl]-(tetrahydro-pyran-4-yl)-methanone]",
3,"Cc1c(Cl)ccc2sc(N3CCCN(C(=O)C4CCOCC4)CC3)nc12 [Example 48, [4-(5-Chloro-4-methyl-benzothiazol-2-yl)-[1,4]diazepan-1-yl]-(tetrahydro-pyran-4-yl)-methanone]",
54,"FC(F)(F)c1cnc(N2CCCN(c3nc4cc(C(F)(F)F)ccc4o3)CC2)c(Cl)c1 [Example 49, 2-[4-(3-Chloro-5-trifluoromethyl-pyridin-2-yl)-[1,4]diazepan-1-yl]-5-trifluoromethyl-benzooxazole]",
217,"O=C(C1CCOCC1)N1CCCN(c2nc(-c3ccccc3)cs2)CC1 [Example 53, [4-(4-Phenyl-thiazol-2-yl)-[1,4]diazepan-1-yl]-(tetrahydro-pyran-4-yl)-methanone]",
14,"O=C(C1CCOCC1)N1CCCN(c2ncc(CN3CCOCC3)s2)CC1 [Example 54, [4-(5-Morpholin-4-ylmethyl-thiazol-2-yl)-[1,4]diazepan-1-yl]-(tetrahydro-pyran-4-yl)-methanone]",
110,"Cc1ccc2nc(N3CCCN(C(=O)C4CCOCC4)CC3)sc2c1 [Example 64, [4-(6-Methyl-benzothiazol-2-yl)-[1,4]diazepan-1-yl]-(tetrahydro-pyran-4-yl)-methanone]",
10,"O=C(C1CCC(F)(F)CC1)N1CCCN(c2nc3cc(C(F)(F)F)ccc3o2)CC1 [Example 67, (4,4-Difluoro-cyclohexyl)-[4-(5-trifluoromethyl-benzooxazol-2-yl)-[1,4]diazepan-1-yl]-methanone]",
14,"CCC(C)c1cc(NC(=O)N2CCCN(c3ncc(C(F)(F)F)cc3Cl)CC2)n(C)n1 (stereo not shown) [Example 68, 4-(3-Chloro-5-trifluoromethyl-pyridin-2-yl)-[1,4]diazepane-1-carboxylic acid (5-sec-butyl-2-methyl-2H-pyrazol-3-yl)-amide]",
77,"O=C(C1CCOCC1)N1CCCN(c2nc3cc(-c4ccccc4)ccc3o2)CC1 [Example 71, [4-(5-Phenyl-benzooxazol-2-yl)-[1,4]diazepan-1-yl]-(tetrahydro-pyran-4-yl)-methanone]",
45.2,"Cc1csc2ncnc(N3CCCN(C(=O)N4CCOCC4)CC3)c12 [Example 86, [4-(5-Methyl-thieno[2,3-d]pyrimidin-4-yl)-[1,4]diazepan-1-yl]-morpholin-4-yl-methanone]",

# Further lines, the compound ahead of its results:
SMILES,EC50 (read-out: CB2 CAMP @EC50) [nM],EC50 [nM]
"CC(C)(C)c1ccc2oc(N3CCCN(C(=O)c4ccc(Cl)cc4)CC3)nc2c1 [Example 3, [4-(5-tert-Butyl-benzooxazol-2-yl)-[1,4]diazepan-1-yl]-(4-chloro-phenyl)-methanone]",,0.14
"CC(C)(C)c1ccc2oc(N3CCCN(C(=O)C4CCC(F)(F)CC4)CC3)nc2c1 [Example 4, [4-(5-tert-Butyl-benzooxazol-2-yl)-[1,4]diazepan-1-yl]-(4,4-difluoro-cyclohexyl)-methanone]",0.017,
"O=C(C1CCOCC1)N1CCCN(c2nc3cc(C(F)(F)F)ccc3o2)CC1 [Example 5, (Tetrahydro-pyran-4-yl)-[4-(5-trifluoromethyl-benzooxazol-2-yl)-[1,4]diazepan-1-yl]-methanone]",43,
"Cc1csc(NC(=O)N2CCCN(c3ncc(C(F)(F)F)cc3Cl)CC2)n1 [Example 6, 4-(3-Chloro-5-trifluoromethyl-pyridin-2-yl)-[1,4]diazepane-1-carboxylic acid (4-methyl-thiazol-2-yl)-amide]",30,
"O=C(c1ccc(Cl)cc1)N1CCCN(c2nc3ccc(Cl)cc3s2)CC1 [Example 9, [4-(6-Chloro-benzothiazol-2-yl)-[1,4]diazepan-1-yl]-(4-chloro-phenyl)-methanone]",,30
"O=C(c1ccc(Cl)cc1)N1CCCN(c2nc(-c3ccccc3)ns2)CC1 [Example 11, (4-Chloro-phenyl)-[4-(3-phenyl-[1,2,4]thiadiazol-5-yl)-[1,4]diazepan-1-yl]-methanone]",5,
"Cc1nc(NC(=O)N2CCCN(c3ncc(C(F)(F)F)cc3Cl)CC2)sc1C(C)(C)C [Example 14, 4-(3-Chloro-5-trifluoromethyl-pyridin-2-yl)-[1,4]diazepane-1-carboxylic acid (5-tert-butyl-4-methyl-thiazol-2-yl)-amide]",,0.94
"CC(C)(C)c1cc(NC(=O)N2CCCN(c3ncc(Cl)cc3Cl)CC2)no1 [Example 21, 4-(3,5-Dichloro-pyridin-2-yl)-[1,4]diazepane-1-carboxylic acid (5-tert-butyl-isoxazol-3-yl)-amide]",,44
"CC(C)(C)c1cc(NC(=O)N2CCCN(c3nccc(C(F)(F)F)n3)CC2)no1 [Example 23, 4-(4-Trifluoromethyl-pyrimidin-2-yl)-[1,4]diazepane-1-carboxylic acid (5-tert-butyl-isoxazol-3-yl)-amide]",333,
"O=C(N1CCCN(c2nc3ccccc3[nH]2)CC1)N1CCS(=O)(=O)CC1 [Example 56, [4-(1H-Benzoimidazol-2-yl)-[1,4]diazepan-1-yl]-(1,1-dioxo-1λ^6-thiomorpholin-4-yl)-methanone]",327,
O=C(C1CCOCC1)N1CCCN(c2nc3cc(C(F)(F)F)ccc3s2)CC1 [Example 65],,35
"O=C(C1CCOCC1)N1CCCN(c2nc3ccc(Cl)cc3o2)CC1 [Example 70, [4-(6-Chloro-benzooxazol-2-yl)-[1,4]diazepan-1-yl]-(tetrahydro-pyran-4-yl)-methanone]",180,
"O=C(N1CCOCC1)N1CCCN(c2nc3cc(Cl)ccc3o2)CC1 [Example 72, [4-(5-Chloro-benzooxazol-2-yl)-[1,4]diazepan-1-yl]-morpholin-4-yl-methanone]",490,
"CCc1cnc(N2CCCN(C(=O)Nc3cc(C(C)(C)C)on3)CC2)nc1 [Example 79, 4-(5-Ethyl-pyrimidin-2-yl)-[1,4]diazepane-1-carboxylic acid (5-tert-butyl-isoxazol-3-yl)-amide]",,6
"Cc1ccnc(N2CCCN(C(=O)Nc3cc(C(C)(C)C)on3)CC2)n1 [Example 81, 4-(4-Methyl-pyrimidin-2-yl)-[1,4]diazepane-1-carboxylic acid (5-tert-butyl-isoxazol-3-yl)-amide]",344,
